Assay results: patent publication US5059607A, “Imidazolyl benzisoquinolines useful as 5-HT3 receptor antagonists” (Ono-Pharmaceutical Co., Ltd., priority 1989, dated 1991)
Where a name gives a salt, the structure may show the parent alone. Read-outs that look alike come from different tables or passages of the source.

Assays:
[1] = target: T1, 5-HT3 receptor (Rattus norvegicus, UniProt P35563); assay: Antagonistic activity against 5-HT3 receptor in vivo in rats (suppression of 5-HT-induced reflex bradycardia); settings: urethane-anesthetized male Wister rat
T1 construct: 5-HT3 receptor in vivo in rats; from tissue; host or cells: whole anesthetized male Wistar rat (in vivo; endogenous receptor, no preparation isolated)
T1 sequence (P35563 24-483): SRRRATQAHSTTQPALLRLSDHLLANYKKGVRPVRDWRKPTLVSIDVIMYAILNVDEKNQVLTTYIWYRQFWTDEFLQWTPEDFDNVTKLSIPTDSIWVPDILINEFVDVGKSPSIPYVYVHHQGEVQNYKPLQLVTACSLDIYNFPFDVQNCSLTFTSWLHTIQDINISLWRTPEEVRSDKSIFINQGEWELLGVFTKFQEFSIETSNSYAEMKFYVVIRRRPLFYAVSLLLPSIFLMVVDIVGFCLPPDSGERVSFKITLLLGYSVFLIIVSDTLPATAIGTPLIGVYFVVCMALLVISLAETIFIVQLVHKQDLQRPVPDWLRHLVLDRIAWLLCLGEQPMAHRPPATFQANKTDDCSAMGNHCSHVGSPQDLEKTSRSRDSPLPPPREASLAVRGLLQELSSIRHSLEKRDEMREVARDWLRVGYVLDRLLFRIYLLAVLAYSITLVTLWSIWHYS
Experimental: Male Wister rat was urethane-anesthetized and fixed. Cannulas were inserted in the carotid artery and in the thigh vein as used for the recording of blood pressure and heart beat, and for the administration of the test compounds, respectively.
Several amounts of a compound of the present invention were administered from the vein or to the duodenum. 5-HT was administered rapidly to the vein, 2 mins. after administration of the compound of the present invention.

[2] = Acute toxicity (LD50) in mice; settings: mouse, in vivo
[3] = iv, 5-HT i.v. 2 mins after compound, read-out: IC50 i.v. (antagonistic activity against 5-HT3 receptor in vivo in rats)

Row | SMILES | ED50 [1, 3] | ED50 ([1]; i.d. (to the duodenum), read-out: ID50 i.d. (antagonistic activity against 5-HT3 receptor in vivo in rats)) | LD50 ([2]; intravenous administration, read-out: acute toxicity (LD50), intravenous) | LD50 ([2]; oral administration, read-out: acute toxicity (LD50), oral)
1 | Cc1[nH]cnc1Cn1ccc2c(O)cc3ccccc3c2c1=O.Cl [Example 1(f), 2-(5-methylimidazol-4-ylmethyl)-5-hydroxy-1,2-dihydrobenz[1,2-h]isoquinolin-1-one hydrochloride] | 0.62 µg/kg | – | – | –
2 | Cc1[nH]cnc1Cn1ccc2ccc3ccccc3c2c1=O.Cl [Example 1, 2-(5-methylimidazol-4-yl-methyl)-1,2-dihydrobenz[1,2-h]isoquinolin-1-one hydrochloride] | 0.29 µg/kg | 7.5 µg/kg | 94000 µg/kg | > 800000 µg/kg
3 | Cc1[nH]cnc1Cn1ccc2c(C)cc3ccccc3c2c1=O [1(e), 2-(5-methylimidazol-4-ylmethyl)-5-methyl-1,2-dihydrobenz[1,2-h]isoqionolin-1-one hydrochloride] | 1.19 µg/kg | – | – | –
4 | Cc1[nH]cnc1Cn1ccc2cc(C)c3ccccc3c2c1=O.Cl [1(d), 2-(5-methylimidazol-4-ylmethyl)-6-methyl-1,2-dihydrobenz[1,2-h]isoquinolin-1-one hydrochloride] | 0.89 µg/kg | – | – | –
5 | Cc1[nH]cnc1Cn1ccc2cc(Br)c3ccccc3c2c1=O.Cl [1(g), 2-(5-methylimidazol-4-ylmethyl)-6-bromo-1,2-dihydrobenz[1,2-h]isoquinolin-1-one hydrochloride] | 5.87 µg/kg | – | – | –
6 | COc1cc2ccccc2c2c(=O)n(Cc3nc[nH]c3C)ccc12.Cl [1(a), 2-(5-methylimidazol-4-ylmethyl)-5-methoxy-1,2-dihydrobenz[1,2-h]isoquinolin-1-one hydrochloride] | 2.4 µg/kg | – | – | –
